# Measurements reported in ChEMBL document CHEMBL4376889, “Discovery of a Brain-Penetrant ATP-Competitive Inhibitor of the Mechanistic Target of Rapamycin (mTOR) for CNS Disorders” (J Med Chem, 2020).
# Active and inactive are the calls of the source. No cut-off for these calls is given here.
# Columns and labels:
# [1] = Stability in rat liver microsomes assessed as intrinsic clearance at 1 uM incubated for 30 mins by LC-MS/MS analysis; format: ADME, Microsome; details: read-out: CLH
# [2] = Solubility of compound at pH 6.8; format: physicochemical; details: buffer
# [3] = biological target: T1, Serine/threonine-protein kinase mTOR (Mus musculus, UniProt Q9JLN9); assay: Inhibition of mTOR in mouse MEF cells harboring TSC1 deletion mutant assessed as reduction in PS6 phosphorylation incuabted for 2 hrs alexa fluor 594 and Hoechst staining based fluorescence assay; format: cell-based
# [4] = biological target: Cytochrome P450 3A4 (Homo sapiens, UniProt P08684); assay: Inhibition of CYP3A4 (unknown origin); format: ADME
# [5] = test system: MDR1; assay: Efflux ratio of permeability from basolateral to apical over apical to basolateral side in MDCK-MDR1 cells; format: ADME, cell-based, Canis lupus familiaris; details: dog
# [6] = test system: Cortical neurone; assay: Inhibition of oversizing of mouse primary cortical neuron harboring TSC1 deletion mutant at 20 nM incubated for 7 days by immunofluorescence assay; format: functional, cell-based; details: 168 h
# [7] = test system: Cortical neurone; assay: Inhibition of overgrowth of mouse primary cortical neuron harboring TSC1 deletion mutant at 20 nM incubated for 7 days by immunofluorescence assay; format: functional, cell-based
# [8] = test system: Mus musculus; assay: Protection against C57BL/6J mouse model of neuronal mTOR hyperactivity assessed as survival rate at 6 mg/kg, ip administered on postnatal day 22 daily and measured on postnatal day 52 (reference value: 48 %); format: functional
# [9] = biological target: Phosphatidylinositol 4,5-bisphosphate 3-kinase catalytic subunit delta isoform (Homo sapiens, UniProt O00329); assay: Inhibition of PI3Kdelta (unknown origin)
# [10] = biological target: Cytochrome P450 2C9 (Homo sapiens, UniProt P11712); assay: Inhibition of CYP2C9 (unknown origin); format: ADME
# [11] = Stability in rat liver microsomes assessed as intrinsic clearance; format: ADME, Microsome; details: read-out: CLH
# [12] = biological target: Phosphatidylinositol 4,5-bisphosphate 3-kinase catalytic subunit alpha isoform (Homo sapiens, UniProt P42336); assay: Inhibition of PI3Kalpha (unknown origin)
# [13] = Stability in mouse liver microsomes assessed as intrinsic clearance; format: ADME, Microsome; details: read-out: CLH
# [14] = biological target: Phosphatidylinositol 4,5-bisphosphate 3-kinase catalytic subunit beta isoform (Homo sapiens, UniProt P42338); assay: Inhibition of PI3Kbeta (unknown origin)
# [15] = biological target: Cytochrome P450 2D6 (Homo sapiens, UniProt P10635); assay: Inhibition of CYP2D6 (unknown origin); format: ADME
# [16] = Stability in monkey liver microsomes assessed as intrinsic clearance; format: ADME, Macaca mulatta, Microsome; details: rhesus monkey, read-out: CLH
# [17] = Stability in dog liver microsomes assessed as intrinsic clearance; format: ADME, Canis lupus familiaris, Microsome; details: read-out: CLH
# [18] = Stability in human liver microsomes assessed as intrinsic clearance; format: ADME, Microsome; details: read-out: CLH
# [19] = biological target: T1, Serine/threonine-protein kinase mTOR; assay: Inhibition of mTOR in mouse TSC1-/- MEF cells assessed as inhibition of S6 Ser240/244 phosphorylation incubated for 2 hrs by fluorescence based assay; format: cell-based
# [20] = biological target: Phosphatidylinositol 4,5-bisphosphate 3-kinase catalytic subunit gamma isoform (Homo sapiens, UniProt P48736); assay: Inhibition of PI3Kgamma (unknown origin)
# Chain of Phosphatidylinositol 4,5-bisphosphate 3-kinase catalytic subunit gamma isoform (P48736 whole entry, canonical isoform): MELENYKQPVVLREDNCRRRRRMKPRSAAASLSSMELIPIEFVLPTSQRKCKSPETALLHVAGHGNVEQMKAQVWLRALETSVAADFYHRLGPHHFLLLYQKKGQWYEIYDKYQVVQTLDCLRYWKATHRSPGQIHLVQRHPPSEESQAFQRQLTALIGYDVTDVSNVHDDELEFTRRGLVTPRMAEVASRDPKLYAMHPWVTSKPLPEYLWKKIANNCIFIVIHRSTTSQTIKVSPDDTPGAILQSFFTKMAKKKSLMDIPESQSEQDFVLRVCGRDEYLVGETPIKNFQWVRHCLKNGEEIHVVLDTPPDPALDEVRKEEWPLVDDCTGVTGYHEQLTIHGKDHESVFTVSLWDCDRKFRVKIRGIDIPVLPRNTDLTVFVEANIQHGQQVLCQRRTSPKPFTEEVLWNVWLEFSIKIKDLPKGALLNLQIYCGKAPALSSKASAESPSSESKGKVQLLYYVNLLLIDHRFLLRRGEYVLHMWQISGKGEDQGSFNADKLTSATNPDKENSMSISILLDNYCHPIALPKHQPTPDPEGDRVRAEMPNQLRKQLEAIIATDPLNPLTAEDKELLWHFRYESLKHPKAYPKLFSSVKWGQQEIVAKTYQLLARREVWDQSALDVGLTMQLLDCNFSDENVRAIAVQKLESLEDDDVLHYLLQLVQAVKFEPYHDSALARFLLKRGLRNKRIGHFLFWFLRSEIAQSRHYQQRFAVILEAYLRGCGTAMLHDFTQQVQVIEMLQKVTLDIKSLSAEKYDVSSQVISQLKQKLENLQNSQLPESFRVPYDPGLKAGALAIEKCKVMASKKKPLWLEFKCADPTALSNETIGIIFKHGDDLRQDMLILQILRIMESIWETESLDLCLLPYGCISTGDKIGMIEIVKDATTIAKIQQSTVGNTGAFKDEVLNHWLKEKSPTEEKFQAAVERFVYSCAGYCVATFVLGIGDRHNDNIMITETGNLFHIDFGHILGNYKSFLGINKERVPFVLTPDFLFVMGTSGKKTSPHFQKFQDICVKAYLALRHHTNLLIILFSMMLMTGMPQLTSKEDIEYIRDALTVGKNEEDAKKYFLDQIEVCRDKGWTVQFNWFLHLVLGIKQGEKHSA
# Chain of Cytochrome P450 3A4 (P08684 whole entry): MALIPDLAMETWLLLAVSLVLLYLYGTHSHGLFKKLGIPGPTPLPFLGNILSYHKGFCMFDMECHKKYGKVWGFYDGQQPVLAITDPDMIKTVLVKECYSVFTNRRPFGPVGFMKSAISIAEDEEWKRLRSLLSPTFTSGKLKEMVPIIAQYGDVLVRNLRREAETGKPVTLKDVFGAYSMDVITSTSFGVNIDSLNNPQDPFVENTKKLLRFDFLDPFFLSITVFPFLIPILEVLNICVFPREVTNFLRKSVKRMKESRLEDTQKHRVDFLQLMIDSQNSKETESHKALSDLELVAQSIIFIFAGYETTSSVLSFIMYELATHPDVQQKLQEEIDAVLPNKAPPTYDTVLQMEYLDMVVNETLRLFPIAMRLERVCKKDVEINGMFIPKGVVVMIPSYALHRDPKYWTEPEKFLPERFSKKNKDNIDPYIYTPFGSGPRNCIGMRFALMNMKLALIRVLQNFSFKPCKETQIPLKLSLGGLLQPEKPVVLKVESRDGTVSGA
# Chain of Phosphatidylinositol 4,5-bisphosphate 3-kinase catalytic subunit alpha isoform (P42336 whole entry, canonical isoform): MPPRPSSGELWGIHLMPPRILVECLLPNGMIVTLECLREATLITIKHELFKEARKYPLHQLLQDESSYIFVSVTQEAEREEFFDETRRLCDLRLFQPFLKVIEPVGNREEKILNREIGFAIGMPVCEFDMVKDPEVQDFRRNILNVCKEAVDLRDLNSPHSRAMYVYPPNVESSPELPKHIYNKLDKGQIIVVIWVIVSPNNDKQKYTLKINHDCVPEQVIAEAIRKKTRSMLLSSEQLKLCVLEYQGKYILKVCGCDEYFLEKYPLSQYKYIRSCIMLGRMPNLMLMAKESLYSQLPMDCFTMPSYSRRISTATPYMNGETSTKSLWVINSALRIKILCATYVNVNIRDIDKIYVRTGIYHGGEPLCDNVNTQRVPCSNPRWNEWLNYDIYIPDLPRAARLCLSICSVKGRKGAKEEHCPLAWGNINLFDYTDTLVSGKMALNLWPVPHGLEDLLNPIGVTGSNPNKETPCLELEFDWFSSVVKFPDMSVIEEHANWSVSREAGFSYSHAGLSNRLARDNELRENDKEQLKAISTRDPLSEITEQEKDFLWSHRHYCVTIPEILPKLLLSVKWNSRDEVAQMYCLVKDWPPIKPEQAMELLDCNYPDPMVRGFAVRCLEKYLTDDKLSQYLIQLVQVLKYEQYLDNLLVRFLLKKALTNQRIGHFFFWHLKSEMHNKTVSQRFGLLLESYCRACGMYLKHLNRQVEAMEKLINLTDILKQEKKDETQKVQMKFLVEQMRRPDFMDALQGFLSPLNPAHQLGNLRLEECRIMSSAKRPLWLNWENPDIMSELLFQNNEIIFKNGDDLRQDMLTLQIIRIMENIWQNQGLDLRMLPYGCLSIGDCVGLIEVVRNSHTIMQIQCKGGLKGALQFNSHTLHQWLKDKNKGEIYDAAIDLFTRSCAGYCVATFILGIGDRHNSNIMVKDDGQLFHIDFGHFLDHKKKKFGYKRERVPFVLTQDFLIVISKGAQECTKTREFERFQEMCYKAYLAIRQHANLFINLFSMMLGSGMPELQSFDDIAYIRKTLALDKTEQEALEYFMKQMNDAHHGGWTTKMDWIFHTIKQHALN
# Chain of Phosphatidylinositol 4,5-bisphosphate 3-kinase catalytic subunit beta isoform (P42338 whole entry, canonical isoform): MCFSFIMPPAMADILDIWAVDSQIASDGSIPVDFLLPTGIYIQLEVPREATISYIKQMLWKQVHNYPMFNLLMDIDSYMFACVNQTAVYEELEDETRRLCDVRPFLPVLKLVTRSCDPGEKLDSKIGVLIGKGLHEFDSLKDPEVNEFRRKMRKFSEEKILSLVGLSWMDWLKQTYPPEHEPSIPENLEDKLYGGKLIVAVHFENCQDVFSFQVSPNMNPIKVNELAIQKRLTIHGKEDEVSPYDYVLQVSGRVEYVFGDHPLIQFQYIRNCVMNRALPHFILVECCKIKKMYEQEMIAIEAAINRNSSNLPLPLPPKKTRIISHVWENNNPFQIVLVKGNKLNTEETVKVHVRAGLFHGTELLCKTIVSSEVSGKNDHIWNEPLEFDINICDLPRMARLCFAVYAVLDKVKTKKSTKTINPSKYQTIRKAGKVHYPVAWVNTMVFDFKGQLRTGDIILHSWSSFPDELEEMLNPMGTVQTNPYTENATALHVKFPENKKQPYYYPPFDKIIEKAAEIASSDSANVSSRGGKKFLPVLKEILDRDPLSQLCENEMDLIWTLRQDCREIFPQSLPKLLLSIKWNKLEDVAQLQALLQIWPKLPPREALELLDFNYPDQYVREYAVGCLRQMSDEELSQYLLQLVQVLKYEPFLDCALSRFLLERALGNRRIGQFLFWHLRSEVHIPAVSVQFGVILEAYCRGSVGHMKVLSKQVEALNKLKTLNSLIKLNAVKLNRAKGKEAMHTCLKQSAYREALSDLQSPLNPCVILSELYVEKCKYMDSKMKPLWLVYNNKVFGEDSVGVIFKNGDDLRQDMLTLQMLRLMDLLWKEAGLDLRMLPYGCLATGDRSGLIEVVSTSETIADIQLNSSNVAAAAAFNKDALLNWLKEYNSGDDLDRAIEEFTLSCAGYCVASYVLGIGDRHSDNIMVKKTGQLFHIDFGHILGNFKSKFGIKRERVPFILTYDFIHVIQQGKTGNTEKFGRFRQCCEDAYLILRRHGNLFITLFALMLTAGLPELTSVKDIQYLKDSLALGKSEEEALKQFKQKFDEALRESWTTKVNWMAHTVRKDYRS
# Chain of Phosphatidylinositol 4,5-bisphosphate 3-kinase catalytic subunit delta isoform (O00329 whole entry, canonical isoform): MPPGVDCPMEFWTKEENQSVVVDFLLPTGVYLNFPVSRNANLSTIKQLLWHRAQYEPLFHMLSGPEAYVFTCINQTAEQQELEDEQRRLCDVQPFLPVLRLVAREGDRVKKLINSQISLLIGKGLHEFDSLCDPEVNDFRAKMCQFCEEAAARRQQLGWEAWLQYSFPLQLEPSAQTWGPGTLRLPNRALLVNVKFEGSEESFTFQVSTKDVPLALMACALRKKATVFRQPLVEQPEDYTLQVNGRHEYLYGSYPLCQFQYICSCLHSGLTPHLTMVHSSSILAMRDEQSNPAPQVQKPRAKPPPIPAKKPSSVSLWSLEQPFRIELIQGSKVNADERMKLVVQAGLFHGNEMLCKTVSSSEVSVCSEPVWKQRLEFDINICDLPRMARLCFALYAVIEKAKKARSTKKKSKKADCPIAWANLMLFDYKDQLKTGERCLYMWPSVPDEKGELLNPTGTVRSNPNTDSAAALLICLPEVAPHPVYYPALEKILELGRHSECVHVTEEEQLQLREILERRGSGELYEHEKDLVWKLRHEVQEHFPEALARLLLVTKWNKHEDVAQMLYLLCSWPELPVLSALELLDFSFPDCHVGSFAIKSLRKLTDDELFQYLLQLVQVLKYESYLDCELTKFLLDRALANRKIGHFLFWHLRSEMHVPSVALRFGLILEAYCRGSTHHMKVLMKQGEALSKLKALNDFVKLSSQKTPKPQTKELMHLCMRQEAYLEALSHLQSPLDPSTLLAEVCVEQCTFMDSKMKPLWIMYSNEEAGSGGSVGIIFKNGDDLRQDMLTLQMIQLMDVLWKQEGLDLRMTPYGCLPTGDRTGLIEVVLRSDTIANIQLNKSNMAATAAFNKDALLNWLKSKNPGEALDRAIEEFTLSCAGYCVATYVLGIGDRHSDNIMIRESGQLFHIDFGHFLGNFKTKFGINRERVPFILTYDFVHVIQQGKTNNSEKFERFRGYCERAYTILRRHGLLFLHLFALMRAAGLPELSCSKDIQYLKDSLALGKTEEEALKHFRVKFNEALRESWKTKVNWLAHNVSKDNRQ
SMILES,microsomal CLint at 1 µM [1],solubility [2],IC50 [3],K [4],further results
C[C@@H]1COCCN1c1nc(N2CCOC[C@@H]2C)nc2sc(-c3cccc(O)c3)nc12,,,278 nM,0.035 min⁻¹,
C[C@@H]1COCCN1c1nc(N2CCOC[C@@H]2C)nc2sc(-c3cn[nH]c3)nc12,,,56 nM,0.02 min⁻¹,
C[C@@H]1COCCN1c1nc(N2CCOC[C@@H]2C)nc2sc(-c3cccc4[nH]ccc34)nc12,,,305 nM,0.027 min⁻¹,
C[C@@H]1COCCN1c1ncnc2sc(-c3cc[nH]n3)nc12,100 µL/min/mg,,603 nM,0.006 min⁻¹,
C[C@@H]1COCCN1c1nc(CN2CCOCC2)nc2sc(-c3cc[nH]n3)nc12,> 924 µL/min/mg,325 µg/mL,92 nM,0.008 min⁻¹,
C[C@@H]1COCCN1c1nc(N2CCOC[C@@H]2C)nc2sc(-c3c[nH]cn3)nc12,,,7.8 nM,0.013 min⁻¹,efflux ratio [5]: 0.89
C[C@@H]1COCCN1c1nc(N2CCN(C)CC2)nc2sc(-c3cc[nH]n3)nc12,> 924 µL/min/mg,191 µg/mL,134 nM,0.001 min⁻¹,
CO[C@H]1C[C@@H]2CC[C@@H](C)[C@@](O)(O2)C(=O)C(=O)N2CCCC[C@H]2C(=O)O[C@H]([C@H](C)C[C@@H]2CC[C@@H](OCCO)[C@H](OC)C2)CC(=O)[C@H](C)/C=C(\C)[C@@H](O)[C@@H](OC)C(=O)[C@H](C)C[C@H](C)/C=C/C=C/C=C/1C [EVEROLIMUS],,,,,IC50 [6]: 0.15 nM; inhibition [7]: Active; Activity [8]: 100%
C[C@@H]1COCCN1c1nc(N2CCOC[C@@H]2C)nc2[nH]c(-c3cccc4[nH]ccc34)nc12,,,,0.08 min⁻¹,IC50 [9]: 800 nM; IC50 [10]: 1980 nM; microsomal CLint [11]: 35 µL/min/mg; IC50 [12]: 6600 nM; microsomal CLint [13]: 62 µL/min/mg; IC50 [14]: > 10000 nM; IC50 [15]: 12800 nM; microsomal CLint [16]: 121 µL/min/mg; microsomal CLint [17]: 60 µL/min/mg; microsomal CLint [18]: 27 µL/min/mg; efflux ratio [5]: 0.95; IC50 [19]: 38 nM; IC50 [20]: 6600 nM

# More lines, main results first:
microsomal CLint at 1 µM [1],solubility [2],IC50 [3],K [4],SMILES,further results
104 µL/min/mg,< 1 µg/mL,3.7 nM,0.012 min⁻¹,CC(C)c1nc(N2CCOC[C@H]2C)c2nc(-c3cc[nH]n3)sc2n1,
24 µL/min/mg,4 µg/mL,5.3 nM,0.011 min⁻¹,C[C@@H]1COCCN1c1nc(N2CCOCC2)nc2sc(-c3cc[nH]n3)nc12,
37 µL/min/mg,9 µg/mL,6.3 nM,0.003 min⁻¹,C[C@@H]1COCCN1c1nc(C2CCOCC2)nc2sc(-c3cc[nH]n3)nc12,
164 µL/min/mg,< 2 µg/mL,2.7 nM,0.011 min⁻¹,C[C@@H]1COCCN1c1nc(N2CCCOCC2)nc2sc(-c3cc[nH]n3)nc12,
,,6.9 nM,0.01 min⁻¹,C[C@@H]1COCCN1c1nc(N2CCOC[C@@H]2C)nc2sc(-c3cn[nH]n3)nc12,efflux ratio [5]: 0.65
